Test results reported in PMC11674118, “New High-Affinity Peptide Ligands for Kv1.2 Channel: Selective Blockers and Fluorescent Probes” (Cells, 2024).
Like-named read-outs stand apart in the source and are kept apart here. *1 amine or outer side, *2 acyl side, *3 side chain or, on linkers, in order; H or OH if unused. Where a SMILES comes first, the peptide text is derived from it. Bridges are numbered along the chain shown (N, C = ends). [ ]: non-standard residue; d: D form. The star is where a group is joined. X1 = N=c1ccc2c(-c3ccccc3C(=O)*)c3ccc(N)c(S(=O)(=O)O)c3oc-2c1S(=O)(=O)O; NMeGABA = CN(CCCC(=O)[*:2])[*:1]

Tests used:
Kv1.1 channel (K-Kv1.1) [1] = conditions: similar analytical system, read-out: Kap, Kv1.1; cited from earlier work
Excerpt: Table 2 Sequences of Ce1, Ce4, HgTx1, and MgTx peptides and dissociation constants (Kap, nM) of their complexes with Kv1.2, Kv1.1, and Kv1.3 channels. | column: Kap, nM

human Kv1.2 channels = conditions: patch-clamp, mammalian cells; read-out: 50% decrease of current, human Kv1.2; cited from earlier work
Excerpt: (§1) Kap of MgTx in our experiments is consistent with the last value.

Kv1.2 channels = conditions: mammalian cells with depolarized membranes; read-out: 50% inhibition of the Rb+ flux through Kv1.2; cited from earlier work
Excerpt: as §1

[2] = molecular target: T1, human Kv1.2 channel (K-Kv1.2) (Homo sapiens, UniProt P16389, S371T); assay: Competitive displacement of HgTx-G from complexes with K-Kv1.2 on Neuro2a cells; type: binding; conditions: displacement of HgTx-G (0.5 nM), 90-120 min, Cheng-Prusoff, triplicate, mean ± SD, read-out: apparent dissociation constant (Kap), Kv1.2
T1 construct: expressed in transfected cells; host or cells: mouse neuroblastoma Neuro2a cells, transient transfection with pmKate2-KCNA2m1; tracer HgTx-G made in E. coli Rosetta-gami(DE3)pLysS
Method: (§2) Cellular organelles were stained as described earlier. To analyze the binding of Kv1.2 with fluorescent ligands, A-HgTx (0.06–2 nM) or HgTx-G (0.06–0.5 nM) was added to cells in a complete medium for 90–120 min. To analyze competitive binding, HgTx-G (0.5 nM) was added to cells together with the studied peptide (0.1–0.8 nM HgTx1; 0.05–0.8 nM MgTx; 5–20 nM ChTx; 50–400 nM AgTx2; 0.05–0.2 nM Ce1; 0.2–5 nM Ce4) in a complete medium for 90–120 min.
(§3) Quantitative analysis of the interaction of fluorescent ligands with Kv1.2 was carried out using Image J software (version 1.48, National Institute of Health, Bethesda, MD, USA) as described earlier. This analysis was based on calculating the ratio of the fluorescent intensities of the bound ligand to the channel (Ri) in each selected region of interest on the plasma membrane for the confocal images of 20–25 measured cells, followed by calculating the average value (Rav) and standard deviation.
The peptide concentration (DC50) displacing 50% of the fluorescent ligand from the complex with Kv1.2 was estimated by the dependence of Rav on the concentration (C) of the added peptide at the fixed concentration of the fluorescent ligand:Rav(C)/Rav0 = 1/(1 + C/DC50)(2) […]
The apparent dissociation constant (Kap) of the complex between Kv1.2 and the studied peptide was calculated using the Cheng–Prusoff equation:Kap = DC50/(1 + L/Kd)(3) […]

Kv1.1 channel (K-Kv1.1) [3] = conditions: cited from earlier work
Method: (§4) Previously, labeling of HgTx1 with fluorophores Cy3, Cy5, Alexa 488, Alexa 546, Alexa 594, Alexa 660, and Alexa 680 was performed at the cysteine residue introduced instead of alanine 19 [23].

Kv1.3 channel (K-Kv1.3) = molecular target: T2, Kv1.3 channel (K-Kv1.3) (Homo sapiens, UniProt P22001); conditions: cited from earlier work
T2 construct: expressed in transfected cells; host or cells: Neuro2a cells; tracer A-HgTx bought from Smartox Biotechnology
Method: as §4

[4] = molecular target: T3, human Kv1.2 channel, mKate2-Kv1.2(S371T, N469L) (K-Kv1.2m2) (Homo sapiens, UniProt P16389, N469L/S371T); assay: Binding of fluorescent ligand to K-Kv1.2m2 on living Neuro2a cells (confocal microscopy, Rav titration)
T3 construct: expressed in transfected cells; host or cells: mouse neuroblastoma Neuro2a cells, transient transfection with pmKate2-KCNA2m1m2
Method: as §2
(§5) Microscopy was carried out using an SP2 confocal microscope with an HCX PL APO 63×/1.2 objective (Leica Microsystems GmbH, Wetzlar, Germany). The size of the confocal diaphragm corresponded to 1 Airy disk. Typical voxel size was 0.06 × 0.06 × 0.9 µm except for serial ligand binding experiments, where its size was 0.23 × 0.23 × 0.9 µm. […]
as §3, with “deviation. […]” for “deviation.”

[5] = molecular target: T4, human Kv1.2 channel, mKate2-Kv1.2(S371T) (K-Kv1.2) (Homo sapiens, UniProt P16389, S371T); assay: Binding of fluorescent ligands to K-Kv1.2 on living Neuro2a cells (confocal microscopy, Rav titration); conditions: concentration dependence of binding
T4 construct: expressed in transfected cells; host or cells: mouse neuroblastoma Neuro2a cells, transient transfection with pmKate2-KCNA2m1
Method: as §2, §5
as §3, with “deviation. […]” for “deviation.”

T3 sequence (P16389 whole entry S371T/N469L): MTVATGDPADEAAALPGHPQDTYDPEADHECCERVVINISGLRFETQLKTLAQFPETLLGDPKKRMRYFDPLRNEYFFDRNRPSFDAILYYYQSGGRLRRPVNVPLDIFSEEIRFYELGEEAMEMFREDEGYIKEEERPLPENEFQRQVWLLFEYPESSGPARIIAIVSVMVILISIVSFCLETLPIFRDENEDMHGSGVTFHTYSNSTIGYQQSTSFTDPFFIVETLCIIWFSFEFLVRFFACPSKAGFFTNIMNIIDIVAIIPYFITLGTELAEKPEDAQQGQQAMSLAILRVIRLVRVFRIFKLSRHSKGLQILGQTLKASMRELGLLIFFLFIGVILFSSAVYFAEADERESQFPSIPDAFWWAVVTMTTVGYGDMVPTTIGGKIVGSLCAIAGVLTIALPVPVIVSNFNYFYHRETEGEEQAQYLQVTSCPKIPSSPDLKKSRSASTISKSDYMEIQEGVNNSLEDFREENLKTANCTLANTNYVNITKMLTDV
T4 sequence (P16389 whole entry S371T): as the sequence (P16389 whole entry S371T/N469L) above, with L469N counted along it
T1 sequence (P16389 whole entry S371T): as the sequence (P16389 whole entry S371T/N469L) above, with L469N counted along it
T2 sequence (P22001 whole entry): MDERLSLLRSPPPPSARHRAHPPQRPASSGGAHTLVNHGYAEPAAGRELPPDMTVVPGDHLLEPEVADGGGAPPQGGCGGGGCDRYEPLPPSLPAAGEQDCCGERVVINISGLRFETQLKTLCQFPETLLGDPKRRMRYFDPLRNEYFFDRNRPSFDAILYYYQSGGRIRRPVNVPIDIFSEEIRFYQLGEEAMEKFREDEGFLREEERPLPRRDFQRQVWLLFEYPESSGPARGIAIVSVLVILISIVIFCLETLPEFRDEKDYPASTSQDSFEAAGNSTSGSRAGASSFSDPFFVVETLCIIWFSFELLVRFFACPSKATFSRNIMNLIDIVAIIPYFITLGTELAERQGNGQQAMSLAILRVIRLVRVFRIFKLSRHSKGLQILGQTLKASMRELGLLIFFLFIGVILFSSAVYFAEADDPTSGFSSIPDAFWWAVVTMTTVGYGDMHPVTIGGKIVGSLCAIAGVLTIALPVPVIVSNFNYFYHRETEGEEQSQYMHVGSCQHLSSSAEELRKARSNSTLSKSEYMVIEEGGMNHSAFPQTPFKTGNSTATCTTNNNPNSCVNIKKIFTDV

Question: Which results are given for `CC[C@H](C)[C@H](NC(=O)[C@@H](N)[C@@H](C)O)C(=O)N[C@H](C(=O)N[C@@H](CC(N)=O)C(=O)N[C@H](C(=O)N[C@@H](CCCCN)C(=O)N[C@H]1CSSC[C@@H]2NC(=O)[C@H](CCCCN)NC(=O)[C@H](C)NC(=O)CNC(=O)[C@H](C)NC(=O)[C@H](CO)NC(=O)[C@H](CCC(N)=O)NC(=O)CNC(=O)[C@H](Cc3ccccc3)NC(=O)[C@H](CCC(N)=O)NC(=O)[C@H](C)NC(=O)[C@H](CCCCN)NC(=O)[C@@H]3CSSC[C@@H](C(=O)N[C@@H](Cc4ccc(O)cc4)C(=O)N4CCC[C@H]4C(=O)N[C@@H](Cc4c[nH]cn4)C(=O)O)NC(=O)[C@H](CCCCN)NC(=O)[C@H](CSSC[C@H](NC(=O)[C@H](CCC(N)=O)NC(=O)[C@H](CCCCN)NC(=O)[C@@H]4CCCN4C(=O)[C@H](CO)NC(=O)[C@H]([C@@H](C)O)NC1=O)C(=O)N[C@@H](CC(C)C)C(=O)N1CCC[C@H]1C(=O)N1CCC[C@H]1C(=O)N3)NC(=O)[C@H](CCCCN)NC(=O)CNC(=O)[C@H](CC(N)=O)NC(=O)[C@H](CCSC)NC2=O)C(C)C)[C@@H](C)CC` [MgTx, margatoxin] (H-TIINVKCTSPKQCLPPCKAQFGQSAGAKCMNGKCKCYPH-OH; disulfide 7-29, 13-34, 17-36 (inferred); N-terminus and C-terminus assumed)?
Answer: Kd (Kv1.1 channel (K-Kv1.1) [1]): 0.3 ± 0.2 nM; IC50 (human Kv1.2 channels): 0.006 nM; IC50 (Kv1.2 channels): 0.675 nM

Question: For `CC[C@H](C)[C@@H]1NC(=O)[C@@H]2CSSC[C@@H]3NC(=O)[C@H](CCCCN)NC(=O)[C@H](CCCNC(=N)N)NC(=O)[C@H](CC(N)=O)NC(=O)[C@H](CCSC)NC(=O)[C@H](CSSC[C@H](NC(=O)[C@H](CO)NC(=O)[C@@H](NC(=O)[C@H](CC(N)=O)NC(=O)[C@@H](NC(=O)[C@@H]4CCCN4C(=O)[C@@H](NC(=O)CN)C(C)C)[C@@H](C)CC)C(C)C)C(=O)N[C@@H]([C@@H](C)O)C(=O)NCC(=O)N[C@@H](CO)C(=O)N4CCC[C@H]4C(=O)N[C@@H](CCC(N)=O)C(=O)N2)NC(=O)[C@H](CCCCN)NC(=O)CNC(=O)[C@H](Cc2ccccc2)NC(=O)[C@H](CCCNC(=N)N)NC(=O)[C@H](CCSC)NC(=O)CNC(=O)[C@H](C)NC(=O)[C@H](CC(=O)O)NC(=O)[C@H](CCCCN)NC(=O)[C@H](CSSC[C@@H](C(=O)N[C@H](C(=O)N2CCC[C@H]2C(=O)N[C@@H](CCCCN)C(=O)O)[C@@H](C)O)NC(=O)[C@H](Cc2c[nH]cn2)NC3=O)NC(=O)[C@@H]2CCCN2C(=O)[C@H](CCCCN)NC1=O` [AgTx2], which Kd [2] is on record?
Answer: 21.5 ± 1.2 nM

Question: What does the source list for `CC[C@H](C)[C@@H]1NC(=O)CNC(=O)[C@H](Cc2ccccc2)NC(=O)[C@H](CCC(N)=O)NC(=O)[C@H](C)NC(=O)[C@H](CCCCN)NC(=O)[C@@H]2CSSC[C@@H](C(=O)N[C@@H](Cc3ccc(O)cc3)C(=O)N3CCC[C@H]3C(=O)N[C@@H](Cc3c[nH]cn3)C(=O)O)NC(=O)[C@H](CCCCN)NC(=O)[C@@H]3CSSC[C@H](NC(=O)[C@H](CCC(N)=O)NC(=O)[C@H](CCCCN)NC(=O)[C@@H]4CCCN4C(=O)[C@H](CO)NC(=O)[C@H]([C@@H](C)O)NC(=O)[C@@H](NC(=O)[C@H](CCCCN)NC(=O)[C@@H](NC(=O)[C@H](CC(=O)O)NC(=O)[C@@H](NC(=O)[C@@H](NC(=O)[C@@H](NC(=O)CCCN(C)C(=O)c4ccccc4-c4c5ccc(=N)c(S(=O)(=O)O)c-5oc5c(S(=O)(=O)O)c(N)ccc45)[C@@H](C)O)C(C)C)[C@@H](C)CC)C(C)C)CSSC[C@H](NC(=O)[C@H](CCCCN)NC(=O)[C@H](C)NC(=O)CNC(=O)[C@H](C)NC(=O)[C@H](CCCNC(=N)N)NC1=O)C(=O)N[C@@H](CCSC)C(=O)N[C@@H](CC(N)=O)C(=O)NCC(=O)N[C@@H](CCCCN)C(=O)N3)C(=O)N[C@@H](CC(C)C)C(=O)N1CCC[C@H]1C(=O)N1CCC[C@H]1C(=O)N2` [A-HgTx] (X1-[NMeGABA]TVIDVKCTSPKQCLPPCKAQFGIRAGAKCMNGKCKCYPH-OH; disulfide 8-30, 14-35, 18-37; C-terminus assumed)?
Answer: Kd (Kv1.1 channel (K-Kv1.1) [3]): 0.7 ± 0.2 nM; Kd (Kv1.3 channel (K-Kv1.3)): 0.3 ± 0.13 nM; binding saturation concentration, K-Kv1.2m2 ([4]; concentration dependence of binding, Neuro2a cells): ~ 0.5 nM; Kd ([4]; living Neuro2a cells, complete medium, confocal microscopy, triplicate, mean ± SD, SD, read-out: dissociation constant (Kd) of the complex with K-Kv1.2m2): 0.08 ± 0.02 nM; binding saturation concentration, K-Kv1.2 [5]: ~ 0.5 nM
